Results from patent US8242084B2, “Dimerized peptide” (Chugai Seiyaku Kabushiki Kaisha, priority 2003, dated 2012).
Bridge positions count the residues as written; N and C are the ends. I, II: the chains in the order shown.

Tested on: EL4-A2402/K^b cells
Assay: Induction of CTLs with peptide dimer: HLA-A24 transgenic mice immunised, splenocytes tested by 51Cr release assay
Assay type: in vivo, HLA-A24 transgenic mouse
Conditions: for CTL-inducing activity (induction of peptide-specific CTLs): HLA-A24 transgenic mouse, s.c. injection in the base of the tail, FIG. 1
Protocol: The CTL-inducing activity of the peptide dimer prepared in Example 1 was evaluated using HLA-A24 transgenic mice (Int. J. Cancer: 100, 565, 2002). The peptide dimer was dissolved in dimethyl sulfoxide (DMSO) to obtain a 40 mg/ml peptide solution. The peptide solution (35 μl) was then added to 10 mM phosphate buffer (pH 7.5) (581 μl) to obtain a peptide suspension. The resultant peptide suspension (550 μl) and Montanide ISA51 (Seppic) (700 μl) were mixed using a connected glass syringe to prepare an emulsion as an administration solution.
The administration solution (200 μl) was injected into an HLA-A24 transgenic mouse subcutaneously in the base of the tail. Three mice were used. Seven days after the injection, the spleen was removed and splenocytes were prepared. A portion of the splenocytes was pulsed with the peptide dimer (100 μg/ml) for 1 hour. Splenocytes not pulsed with the peptide were seeded into a 24-well plate at 7×10^6 cells/well and thereto were added the above-mentioned splenocytes pulsed with the peptide (1×10^6 cells/well), and the plate was incubated. The incubation was conducted in RPMI1640 medium supplemented with 10% FCS, 10 mM HEPES, 20 mM L-glutamine, 1 mM sodium pyruvate, 1 mM MEM nonessential amino acids, 1% MEM vitamin and 55 μM 2-mercaptoethanol for 5 days.
The cultured splenocytes were examined for the cytotoxic activity specific for the peptide used in the administration by ^51Cr release assay (J. Immunol.: 159, 4753, 1997). EL4-A2402/K^b cells obtained by transforming EL-4 cells (ATCC No. TIB-39) in such a manner that a chimera MHC class I molecule of HLA-A24 and H2K^b (Int. J. Cancer: 100, 565, […]) are expressed stably were used as the target cells. The target cells were labeled with ^51Cr (3.7 MBq/10^6 cells) and pulsed with the peptide at 100 μg/ml for an hour. For control, target cells not pulsed with the peptide were labeled with ^51Cr for 2 hours. Those labeled target cells and the previously prepared splenocytes were mixed at a ratio of 1:120, cultured for 4 hours and the CTL activity was evaluated on the basis of the percent of damaged target cells.

Substance: Example 1: Dimer of two H-Cys-Tyr-Thr-Trp-Asn-Gln-Met-Asn-Leu-OH (SEQ ID NO:44) monomers, made by air oxidation, bound through a disulfide bond (chain 1 H-CYTWNQMNL-OH; chain 2 H-CYTWNQMNL-OH; disulfide I:1-II:1; SMILES CSCC[C@H](NC(=O)[C@H](CCC(N)=O)NC(=O)[C@H](CC(N)=O)NC(=O)[C@H](Cc1c[nH]c2ccccc12)NC(=O)[C@@H](NC(=O)[C@H](Cc1ccc(O)cc1)NC(=O)[C@@H](N)CSSC[C@H](N)C(=O)N[C@@H](Cc1ccc(O)cc1)C(=O)N[C@H](C(=O)N[C@@H](Cc1c[nH]c2ccccc12)C(=O)N[C@@H](CC(N)=O)C(=O)N[C@@H](CCC(N)=O)C(=O)N[C@@H](CCSC)C(=O)N[C@@H](CC(N)=O)C(=O)N[C@@H](CC(C)C)C(=O)O)[C@@H](C)O)[C@@H](C)O)C(=O)N[C@@H](CC(N)=O)C(=O)N[C@@H](CC(C)C)C(=O)O)
- CTL-inducing activity (induction of peptide-specific CTLs): CTLs specific for the peptide were induced
- CTL-inducing activity (induction of peptide-specific CTLs) (listed as peptide dimer (SEQ ID NO: 44)): induces CTLs
- cytotoxic activity of splenocytes on target cells not pulsed with the peptide (control) (same splenocytes, target cells not pulsed with the peptide, ratio 1:120, 4 hours): only weak cytotoxicity
- cytotoxic activity of splenocytes on target cells pulsed with the peptide (percent of damaged target cells) (splenocytes from mice injected s.c. with emulsion (Montanide ISA51), 7 days, target cells pulsed with peptide 100 μg/ml, target:splenocyte ratio 1:120, 4 hours): injured strongly
